Experimental data as given in patent publication US7893252B2, “Selectively depolymerized galactomannan polysaccharide” (priority 2003, dated 2011).

How the values were obtained:
[1] = Biodistribution of 3H-galactomannan in tumor-bearing and non-tumor bearing mice (Example 6); assay type: in vivo
Procedure: The biodistribution of 3H-galactomannan was studied in tumor-bearing and non-tumor bearing mice. […] 3H-galactomannan elimination from plasma, kidneys, lungs and tumor in the various groups was rapid, an average of approximately 50% of the one-hour radioactivity was detected at six hours except in tumor-bearing mice, where the radioactivity in tumor samples from mice treated with 6 or 60 mg/kg of 3H-galactomannan with or without 5-FU averaged approximately 72% remaining after six hours. Elimination of 3H-galactomannan from the liver was more gradual than in other tissues, and on average, more than 50% of the radioactivity detected at one hour after injection was still present at 24 hours.
Male NCr-nu athymic nude mice (Charles Rivers Laboratories, Raleigh, N.C.) were acclimated and housed as described above. The first set of animals (a total of 18 mice) were non-tumored mice. The second set of 18 mice were tumored as follows. […]
Tritiation of GM from G. triacanthos was performed as follows. […] Total yield of the labeled GM was 3.8 mCi, specific radioactivity was 300 μCi/mg.
All 36 mice, divided into 18 groups, were given a single intravenous injection of cold or tritiated GM (either 6 or 60 mg/kg) or of a combination of GM (60 mg/kg, cold or tritiated) and 5-FU (114 mg/kg) on the same day. Non-labeled GM was formulated in saline, and tritiated GM was added to the solution so that each animal received 10 μCi of radioactivity. […] All dosing solutions (100 μL each) were counted in duplicate. […]
After weighing, livers were dissolved in 10 mL of Soluene 350 (Packard Instruments, Downers Grove, Ill.) and incubated first for 4 hrs at 50° C., and at room temperature, until tissues were solubilized. One millilter of the resulting solution was counted in a scintillation counter as a single sample. Based on tissue weight and the sample volume, the number of μCi of tritiated GM per gram of tissue was calculated.
Kidneys were treated in the same manner, but dissolved in 2 mL of Soluene. […] Plasma samples (50 μL each) were placed direct into Safety Solve and counted as a single sample. […]

[2] = test system: human colon tumor COLO 205; experiment: Efficacy study in COLO 205 human colon tumor xenografts, q4d×3 (Example 3); conditions: i.v. q4d×3, 5-FU 75 mg/kg/dose, GM 120 mg/kg/dose
Procedure: The both studies were conducted as follows.
5-FU alone was administered i.v. on the same q4d×3 treatment schedule at doses of 75 mg/kg/dose (225 mg/m2/dose). 5-FU was formulated in saline fresh on each day of treatment at a concentration of 3.75 mg/mL, at pH 9.2. […] Both individual compounds and their mixture were administered according to exact body weight with injection volume being 0.2 mL/10 g body weight.
There were a total of four groups of 10 animals each, s.c.-implanted with COLO 205 human colon tumor xenografts.

rats = experiment: Repeat dose I.V. rat study with GMP grade galactomannan (Example 8); assay type: in vivo
Procedure: Studies with repeat dose I.V. in rats with up to 52-day recovery period was performed using filtered GMP grade galactomannan material containing 48 or 96 mg/kg (288 or 576 mg/m2). Five animals of each sex were sacrificed at days 5, 28 and 56.
The galactomannan of the invention has minimal histological effects with only 1/30 rats injected with 48 mg/kg dose of the GMP galactomannan clinical solution having granulomatous inflammation. […] It was concluded that galactomannan clinical solutions, up to a dose of 15 mg/kg (555 mg/m2; 9 mg/mL), is safe for human use and poses no undue risk to health.

Q: With “(((1,4)-linked β-D-mannopyranose)17-((1,6)-linked-β-D-galactopyranose)10)12) [GM]” as the substance, how does the “increase of the amount of bound galactomannan for the 10-times higher dose” value ([1]; 60 mg/kg versus 6 mg/kg) read?
A: 10 fold

Q: And the saturation of binding ([1]; 6 to 60 mg/kg (18 to 180 mg/m2))?
A: did not reach saturation

Q: What about the “binding to liver, kidney, lung, tumor, and plasma” value ([1]; single i.v. injection, 6 or 60 mg/kg) of the same substance?
A: freely binds

Q: And the mean survival time [2]?
A: 19.2 days

Q: What about the “median to quadrupling of tumor volume” value [2] of the same substance?
A: 15.5 days

Q: And the “median tumor volume after 56 days of the study” value [2]?
A: 1813 mm3

Q: And the tolerability [2]?
A: well tolerated

Q: What about the “tumor regression after 56 days of the study” value [2] of the same substance?
A: no tumor regression

Q: What about the treatment-related deaths ([2]; 10 mice per group, within two weeks) of the same substance?
A: No deaths

Q: And the “rats having granulomatous inflammation” value (rats; 48 mg/kg dose of GMP galactomannan clinical solution)?
A: 1/30

Q: And the “rats having granulomatous inflammation” value (rats; 96 mg/kg dose of GMP galactomannan clinical solution)?
A: None of the 30
